# Test results from patent US10435399B2, “HDAC6 inhibitory heterocyclic compound” (TAKEDA PHARMACEUTICAL COMPANY LIMITED, priority 2017, dated 2019).
# Target: T1, HDAC6 enzyme (Homo sapiens, UniProt Q9UBN7)
# T1 construct: transducing full length HDAC6 gene into Sf-9 insect cells; GST; purchased SignalChem; host or cells: Sf-9 insect cells
# T1 sequence (Q9UBN7 1-1215): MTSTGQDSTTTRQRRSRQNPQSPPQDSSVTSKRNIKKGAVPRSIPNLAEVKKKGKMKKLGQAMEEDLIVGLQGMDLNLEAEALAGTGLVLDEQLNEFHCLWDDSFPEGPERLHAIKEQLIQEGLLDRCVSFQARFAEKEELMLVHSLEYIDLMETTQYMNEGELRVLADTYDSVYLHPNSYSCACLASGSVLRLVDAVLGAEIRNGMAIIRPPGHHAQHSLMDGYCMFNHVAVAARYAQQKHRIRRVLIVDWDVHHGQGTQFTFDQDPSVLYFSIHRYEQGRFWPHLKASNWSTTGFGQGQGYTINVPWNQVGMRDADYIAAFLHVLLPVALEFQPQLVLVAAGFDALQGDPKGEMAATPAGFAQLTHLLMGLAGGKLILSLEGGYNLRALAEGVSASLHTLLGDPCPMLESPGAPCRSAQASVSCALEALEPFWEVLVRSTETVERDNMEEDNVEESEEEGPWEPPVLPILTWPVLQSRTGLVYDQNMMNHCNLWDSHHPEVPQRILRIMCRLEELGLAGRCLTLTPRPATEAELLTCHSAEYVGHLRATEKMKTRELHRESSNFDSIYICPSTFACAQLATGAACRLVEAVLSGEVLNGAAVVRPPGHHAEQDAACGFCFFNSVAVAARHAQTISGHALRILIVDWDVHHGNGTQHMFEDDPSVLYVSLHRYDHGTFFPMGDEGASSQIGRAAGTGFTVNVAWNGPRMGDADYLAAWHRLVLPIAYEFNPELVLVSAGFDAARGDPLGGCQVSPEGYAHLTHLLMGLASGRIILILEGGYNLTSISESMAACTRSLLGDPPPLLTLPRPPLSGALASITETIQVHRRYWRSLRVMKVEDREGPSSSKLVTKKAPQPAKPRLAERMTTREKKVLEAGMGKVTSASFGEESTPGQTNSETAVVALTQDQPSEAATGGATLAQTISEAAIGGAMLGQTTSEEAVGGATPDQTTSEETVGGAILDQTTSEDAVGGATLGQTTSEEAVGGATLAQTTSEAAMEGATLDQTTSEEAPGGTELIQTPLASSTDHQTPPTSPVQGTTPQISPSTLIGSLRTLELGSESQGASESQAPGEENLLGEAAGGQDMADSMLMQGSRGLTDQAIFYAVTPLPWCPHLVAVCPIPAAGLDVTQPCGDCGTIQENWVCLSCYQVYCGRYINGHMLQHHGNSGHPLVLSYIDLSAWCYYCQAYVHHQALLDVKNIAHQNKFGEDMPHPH
# Experiment: HDAC6 enzyme inhibitory activity (HDAC-Glo I/II Assay kit)
# Assay type: biochemical
# Conditions: 10 μM; wells without enzyme = 100% inhibition; read-out: HDAC6 inhibitory rate (%) (10 μM)
# How it was run: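 Sf-9-derived GST-purified full-length HDAC6 + cpd, 60 min RT, 24 mM Tris pH 7.5/0.6 mM glutathione/0.01% Tween-20; add HDAC-Glo substrate-developer, 20 min RT; luminescence. No-enzyme = 100% inhibition.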
row,inhibition at 10 µM,SMILES
1,101%,"COC1(C(=O)N[C@@H]2CCCC[C@H]2N2Cc3ccc(-c4nnc(C(F)F)o4)cc3C2=O)CC1 [Example 68, N-((1R,2R)-2-(6-(5-(difluoromethyl)-1,3,4-oxadiazol-2-yl)-1-oxo-1,3-dihydro-2H-isoindol-2-yl)cyclohexyl)-1-methoxycyclopropanecarboxamide]"
2,100%,"O=C(N[C@@H]1CCCC[C@H]1N1Cc2ccc(-c3nnc(C(F)F)o3)cc2C1=O)C1CC1F (stereo partly drawn) [Example 70, N-((1R,2R)-2-(6-(5-(difluoromethyl)-1,3,4-oxadiazol-2-yl)-1-oxo-1,3-dihydro-2H-isoindol-2-yl)cyclohexyl)-2-fluorocyclopropanecarboxamide]"
3,97%,"O=C(N[C@@H]1CCCC[C@H]1N1Cc2ccc(-c3nnc(C(F)F)o3)cc2C1=O)C1CC1C(F)F (stereo partly drawn) [Example 71, 2-(difluoromethyl)-N-((1R,2R)-2-(6-(5-(difluoromethyl)-1,3,4-oxadiazol-2-yl)-1-oxo-1,3-dihydro-2H-isoindol-2-yl)cyclohexyl)cyclopropanecarboxamide (optical isomer)]"
4,97%,"O=C(N[C@@H]1CCCC[C@H]1N1Cc2ccc(-c3nnc(C(F)F)o3)cc2C1=O)C1CC12CCC2 (stereo partly drawn) [Example 72, N-((1R,2R)-2-(6-(5-(difluoromethyl)-1,3,4-oxadiazol-2-yl)-1-oxo-1,3-dihydro-2H-isoindol-2-yl)cyclohexyl)spiro[2.3]hexane-1-carboxamide (optical isomer)]"
5,100%,"CC1CC1C(=O)N[C@@H]1CCCC[C@H]1N1Cc2ccc(-c3nnc(C(F)F)o3)cc2C1=O (stereo partly drawn) [Example 73, N-((1R,2R)-2-(6-(5-(difluoromethyl)-1,3,4-oxadiazol-2-yl)-1-oxo-1,3-dihydro-2H-isoindol-2-yl)cyclohexyl)-2-methylcyclopropanecarboxamide]"
6,102%,"O=C(N[C@@H]1CCCC[C@H]1N1Cc2ccc(-c3nnc(C(F)F)o3)cc2C1=O)C1CC1(F)F (stereo partly drawn) [Example 74, N-((1R,2R)-2-(6-(5-(difluoromethyl)-1,3,4-oxadiazol-2-yl)-1-oxo-1,3-dihydro-2H-isoindol-2-yl)cyclohexyl)-2,2-difluorocyclopropanecarboxamide (optical isomer)]"
7,101%,"CC1(C)CC1C(=O)N[C@@H]1CCCC[C@H]1N1Cc2ccc(-c3nnc(C(F)F)o3)cc2C1=O (stereo partly drawn) [Example 75, N-((1R,2R)-2-(6-(5-(difluoromethyl)-1,3,4-oxadiazol-2-yl)-1-oxo-1,3-dihydro-2H-isoindol-2-yl)cyclohexyl)-2,2-dimethylcyclopropanecarboxamide]"
8,101%,"O=C1c2cc(-c3nnc(C(F)F)o3)ccc2CN1[C@@H]1CCCC[C@H]1NC(=O)C1(O)CCC1 [Example 76, N-((1R,2R)-2-(6-(5-(difluoromethyl)-1,3,4-oxadiazol-2-yl)-1-oxo-1,3-dihydro-2H-isoindol-2-yl)cyclohexyl)-1-hydroxycyclobutanecarboxamide]"
9,100%,"O=C1c2cc(-c3nnc(C(F)F)o3)ccc2CN1[C@@H]1CCCC[C@H]1NC(=O)C1(F)CCC1 [Example 77, N-((1R,2R)-2-(6-(5-(difluoromethyl)-1,3,4-oxadiazol-2-yl)-1-oxo-1,3-dihydro-2H-isoindol-2-yl)cyclohexyl)-1-fluorocyclobutanecarboxamide]"
10,100%,"N#CC1(C(=O)N[C@@H]2CCCC[C@H]2N2Cc3ccc(-c4nnc(C(F)F)o4)cc3C2=O)CCC1 [Example 78, 1-cyano-N-((1R,2R)-2-(6-(5-(difluoromethyl)-1,3,4-oxadiazol-2-yl)-1-oxo-1,3-dihydro-2H-isoindol-2-yl)cyclohexyl)cyclobutanecarboxamide]"
11,97%,"O=C(N[C@@H]1CCCC[C@H]1N1Cc2ccc(-c3nnc(C(F)F)o3)cc2C1=O)C1CC2(CCC2)C1 [Example 79, N-((1R,2R)-2-(6-(5-(difluoromethyl)-1,3,4-oxadiazol-2-yl)-1-oxo-1,3-dihydro-2H-isoindol-2-yl)cyclohexyl)spiro[3.3]heptane-2-carboxamide]"
12,101%,"O=C1c2cc(-c3nnc(C(F)F)o3)ccc2CN1[C@@H]1CCCC[C@H]1NC(=O)C12CC(C(F)(F)F)(C1)C2 [Example 80, N-((1R,2R)-2-(6-(5-(difluoromethyl)-1,3,4-oxadiazol-2-yl)-1-oxo-1,3-dihydro-2H-isoindol-2-yl)cyclohexyl)-3-(trifluoromethyl)bicyclo[1.1.1]pentane-1-carboxamide]"
13,101%,"CC(C)(O)C(=O)N[C@@H]1CCCC[C@H]1N1Cc2ccc(-c3nnc(C(F)F)o3)cc2C1=O [Example 81, N-((1R,2R)-2-(6-(5-(difluoromethyl)-1,3,4-oxadiazol-2-yl)-1-oxo-1,3-dihydro-2H-isoindol-2-yl)cyclohexyl)-2-hydroxy-2-methylpropanamide]"
14,100%,"CC(C)(C#N)C(=O)N[C@@H]1CCCC[C@H]1N1Cc2ccc(-c3nnc(C(F)F)o3)cc2C1=O [Example 82, 2-cyano-N-((1R,2R)-2-(6-(5-(difluoromethyl)-1,3,4-oxadiazol-2-yl)-1-oxo-1,3-dihydro-2H-isoindol-2-yl)cyclohexyl)-2-methylpropanamide]"
15,102%,"CC(C)(O)CC(=O)N[C@@H]1CCCC[C@H]1N1Cc2ccc(-c3nnc(C(F)F)o3)cc2C1=O [Example 83, N-((1R,2R)-2-(6-(5-(difluoromethyl)-1,3,4-oxadiazol-2-yl)-1-oxo-1,3-dihydro-2H-isoindol-2-yl)cyclohexyl)-3-hydroxy-3-methylbutanamide]"
16,100%,"CC(C)(C(=O)N[C@@H]1CCCC[C@H]1N1Cc2ccc(-c3nnc(C(F)F)o3)cc2C1=O)C(F)(F)F [Example 84, N-((1R,2R)-2-(6-(5-(difluoromethyl)-1,3,4-oxadiazol-2-yl)-1-oxo-1,3-dihydro-2H-isoindol-2-yl)cyclohexyl)-3,3,3-trifluoro-2,2-dimethylpropanamide]"
17,101%,"COC(C)(C)C(=O)N[C@@H]1CCCC[C@H]1N1Cc2ccc(-c3nnc(C(F)F)o3)cc2C1=O [Example 85, N-((1R,2R)-2-(6-(5-(difluoromethyl)-1,3,4-oxadiazol-2-yl)-1-oxo-1,3-dihydro-2H-isoindol-2-yl)cyclohexyl)-2-methoxy-2-methylpropanamide]"
18,96%,"N#CC1(CC(=O)N[C@@H]2CCCC[C@H]2N2Cc3ccc(-c4nnc(C(F)F)o4)cc3C2=O)CC1 [Example 86, 2-(1-cyanocyclopropyl)-N-((1R,2R)-2-(6-(5-(difluoromethyl)-1,3,4-oxadiazol-2-yl)-1-oxo-1,3-dihydro-2H-isoindol-2-yl)cyclohexyl)acetamide]"
19,99%,"O=C1c2cc(-c3nnc(C(F)F)o3)ccc2CN1[C@@H]1CCCC[C@H]1NC(=O)C1(c2ccccc2)CC1 [Example 87, N-((1R,2R)-2-(6-(5-(difluoromethyl)-1,3,4-oxadiazol-2-yl)-1-oxo-1,3-dihydro-2H-isoindol-2-yl)cyclohexyl)-1-phenylcyclopropanecarboxamide]"
20,99%,"CC(C)(C(=O)N[C@@H]1CCCC[C@H]1N1Cc2ccc(-c3nnc(C(F)F)o3)cc2C1=O)c1ccccc1 [Example 88, N-((1R,2R)-2-(6-(5-(difluoromethyl)-1,3,4-oxadiazol-2-yl)-1-oxo-1,3-dihydro-2H-isoindol-2-yl)cyclohexyl)-2-methyl-2-phenylpropanamide]"
